≈ marks a conversion by molar mass, not a printed value. Where a name gives a salt, the structure may show the parent alone.
Legend:
[1] = Determination of the solubility (suspension shaken 24 h at room temperature, HPLC); type: physicochemical; conditions: for solubility at 24 h: thermodynamic from solid
Procedure: […] This suspension is shaken at room temperature for 24 h. After ultracentrifugation at 224 000 g for 30 min, the supernatant is diluted with DMSO and analysed by HPLC. A two-point calibration plot of the test compound in DMSO is used for quantification.
Agilent 1100 with DAD (G1315A), quat. pump (G1311A), autosampler CTC HTS PAL, degasser (G1322A) and column thermostat (G1316A); column: Zorbax Extend-C18 3.5μ; temperature: 40° C.; eluent A: water+5 ml of perchloric acid/liter, eluent B: acetonitrile; flow rate: 0.7 ml/min; gradient: 0-0.5 min 98% A, 2% B; ramp 0.5-4.5 min 10% A, 90% B; 4.5-6 min 10% A, 90% B; ramp 6.5-6.7 min 98% A, 2% B; 6.7-7.5 min 98% A, 2% B.

[2] = Stability in buffer at various pH values (HPLC, 37° C., 24 h); type: physicochemical
Procedure: 0.3 mg of the test substance is weighed into a 2 ml HPLC vial and 0.5 ml of acetonitrile is added. The substance is dissolved by putting the sample vessel in an ultrasonic bath for about 10 seconds. Then 0.5 ml of the respective buffer solution is added, and the sample is again treated in the ultrasonic bath.
• pH 4.0:1 liter of Millipore water is adjusted to pH 4.0 with 1 N hydrochloric acid; • pH 7.4: 90 g of sodium chloride, 13.61 g of potassium dihydrogen phosphate and 83.35 g of 1 M sodium hydroxide solution are made up to 1 liter with Millipore water and then diluted 1:10.
5 μl portions of the test solution are analysed by HPLC for their content of unchanged test substance every hour over a period of 24 hours at 37° C. The percentage areas of the appropriate peaks are used for quantification.
Agilent 1100 with DAD (G1314A), binary pump (G1312A), autosampler (G1329A), column oven (G1316A), thermostat (G1330A); column: Kromasil 100 C18, 125 mm×4.6 mm, 5 μm; column temperature: 30° C.; eluent A: water+5 ml of perchloric acid/liter, eluent B: acetonitrile.
The ratios of the peak areas (F) at the respective time points in relation to the peak areas at the starting time are shown in Table 2 for representative exemplary embodiments: […]

[3] = dilute hydrochloric acid (pH 4), pH 4, aqueous buffer, room temperature, 24 h
[4] = buffer pH 4, 37° C., hydrobromide

solubility at 24 h [1, 3] [µg/mL] | % test substance after 4 h [F(t = 4 h) × 100/F(t = 0 h)] ([2]; buffer pH 4, 37° C.) [%] | % Test substance after 24 h [F(t = 24 h) × 100/F(t = 0 h)] ([2]; buffer pH 4, 37° C.) [%] | % Test substance after 24 h [F(t = 24 h) × 100/F(t = 0 h)] ([2]; buffer pH 7.4, 37° C.) [%] | % test substance after 4 h [F(t = 4 h) × 100/F(t = 0 h)] ([2]; buffer pH 7.4, 37° C.) [%] | further results | SMILES
680 | 100 | 99 | 0 | – | % test substance after 4 h [F(t = 4 h) × 100/F(t = 0 h)] ([2]; buffer pH 7.4, 37° C., hydrobromide): 8% | CC(C)[C@H](N)C(=O)SCC(=O)N(C[C@H]1CN(c2ccc(N3CCOCC3=O)cc2)C(=O)O1)C(=O)c1ccc(Cl)s1 [Example 10, S-{2-[[(5-Chloro-2-thienyl)carbonyl]({(5S)-2-oxo-3-[4-(3-oxomorpholin-4-yl)phenyl]-1,3-oxazolidin-5-yl}methyl)amino]-2-oxoethyl}(2S)-2-amino-3-methylbutanethioate hydrobromide]
– | – | – | – | – | Solubility ([1]; dilute hydrochloric acid (pH 4), room temperature, 24 h, hydrochloride): 960 mg/L; % test substance after 4 h [F(t = 4 h) × 100/F(t = 0 h)] ([2]; buffer pH 7.4, 37° C., hydrochloride): 10% | CC(C)[C@H](N)C(=O)SCC(=O)N(C[C@H]1CN(c2ccc(N3CCOCC3=O)cc2)C(=O)O1)C(=O)c1ccc(Cl)s1 [Example 11, S-{2-[[(5-Chloro-2-thienyl)carbonyl]({(5S)-2-oxo-3-[4-(3-oxomorpholin-4-yl)phenyl]-1,3-oxazolidin-5-yl}methyl)amino]-2-oxoethyl}(2S)-2-amino-3-methylbutanethioate hydrochloride]
350 | – | – | 0 | 0 | % test substance after 4 h [F(t = 4 h) × 100/F(t = 0 h)] [2, 4]: 100%; % Test substance after 24 h [F(t = 24 h) × 100/F(t = 0 h)] [2, 4]: 98% | CNCCCC(=O)N(C[C@H]1CN(c2ccc(N3CCOCC3=O)cc2)C(=O)O1)C(=O)c1ccc(Cl)s1 [Example 12, 5-Chloro-N-[4-(methylamino)butanoyl]-N-({(5S)-2-oxo-3-[4-(3-oxomorpholin-4-yl)phenyl]-1,3-oxazolidin-5-yl}methyl)thiophene-2-carboxamide hydrobromide]
– | – | – | 0 | 0 | % test substance after 4 h [F(t = 4 h) × 100/F(t = 0 h)] [2, 4]: 57%; % Test substance after 24 h [F(t = 24 h) × 100/F(t = 0 h)] [2, 4]: 0% | CNCCCCC(=O)N(C[C@H]1CN(c2ccc(N3CCOCC3=O)cc2)C(=O)O1)C(=O)c1ccc(Cl)s1 [Example 14, 5-Chloro-N-[5-(methylamino)pentanoyl]-N-({(5S)-2-oxo-3-[4-(3-oxomorpholin-4-yl)phenyl]-1,3-oxazolidin-5-yl}methyl)thiophene-2-carboxamide hydrobromide]
– | 100 | 99 | – | – | – | CNCCCCCC(=O)N(C[C@H]1CN(c2ccc(N3CCOCC3=O)cc2)C(=O)O1)C(=O)c1ccc(Cl)s1 [Example 18, 5-Chloro-N-[6-(methylamino)hexanoyl]-N-({(5S)-2-oxo-3-[4-(3-oxomorpholin-4-yl)phenyl]-1,3-oxazolidin-5-yl}methyl)thiophene-2-carboxamide hydrochloride]
– | 100 | 97 | 0 | 0 | – | NCCCC(=O)N(C[C@H]1CN(c2ccc(N3CCOCC3=O)cc2)C(=O)O1)C(=O)c1ccc(Cl)s1 [Example 19, N-(4-Aminobutanoyl)-5-chloro-N-({(5S)-2-oxo-3-[4-(3-oxomorpholin-4-yl)phenyl]-1,3-oxazolidin-5-yl}methyl)thiophene-2-carboxamide hydrochloride]
– | 100 | 100 | 66 | 92 | solubility at 24 h ([1]; 5% dextrose adjusted to pH 4 with hydrochloric acid, pH 4, saline or isotonic): > 3000 µg/mL | NCCCCCC(=O)N(C[C@H]1CN(c2ccc(N3CCOCC3=O)cc2)C(=O)O1)C(=O)c1ccc(Cl)s1 [Example 21, N-(6-Aminohexanoyl)-5-chloro-N-({(5S)-2-oxo-3-[4-(3-oxomorpholin-4-yl)phenyl]-1,3-oxazolidin-5-yl}methyl)thiophene-2-carboxamide hydrochloride]
8.1 (≈ 18.6 µM) | – | – | – | – | – | O=C(NC[C@H]1CN(c2ccc(N3CCOCC3=O)cc2)C(=O)O1)c1ccc(Cl)s1 [compound (A), 5-Chloro-N-({(5S)-2-oxo-3-[4-(3-oxomorpholin-4-yl)phenyl]-1,3-oxazolidin-5-yl}methyl)thiophene-2-carboxamide, reference compound]

— patent US8101601B2, “Aminoacyl prodrug derivatives and medicaments for the treatment of thromboembolitic disorders” (Bayer Pharma Aktiengesellschaft, priority 2007, dated 2012)
